{"source": "patent US11155643B2", "about": "“Glucan kinases and methods for processing starch using the same” (University of Kentucky Research Foundation, priority 2017, dated 2021)", "experiment": "starch-phosphorylation assay (33P-β-ATP radio-label incorporation into starch)", "type": "biochemical, Arabidopsis", "settings": "for ability to phosphorylate starch (specific activity): FIG. 2, FIG. 3", "procedure": "FIG. 8 includes the framework for the C6 versus C3 assay. To label the C6-position, non-phosphorylated starch is incubated in the presence of GWD and ^33P-β-ATP, the protein and label are washed away, and the starch is incubated in the presence of ATP and PWD. The C3 position is labeled in a similar manner, except ^33P-β-ATP is used with PWD. These products are then used as substrates in dephosphorylation assays. A starch-phosphorylation assay is routinely used in the lab to measure the specific activity of protein constructs. This assay has 3 benefits: it utilizes an endogenous substrate, measures the amount of phosphate added to glucose (dikinase activity), and allows comparison of addition to the C3- and C6-positions (site-specific activity) (FIG. 8). Phosphate-free starch was isolated from plants lacking the dikinase GWD, and the sample dialyzed to remove free phosphate. To measure dikinase activity, this phosphate-free starch was used as the substrate. The starch was incubated with the dikinase in question along with ^33P-β-ATP, the ^33P-β-ATP and dikinase was washed out, and radio-label incorporation into the starch was measured.", "note": "“Also recorded” adds a separate entry of the source."}
{"molecule": "Cm-GWD: full length Cyanidioschyzon merolae glucan, water dikinase, amino acids 1-1572", "values": [{"measurement": "activity compared with At-GWD and At-PWD", "setting": "FIG. 2", "result": "between that of At-GWD and At-PWD"}, {"measurement": "ability to phosphorylate starch (specific activity)", "result": "robust specific activity"}]}
{"molecule": "NcCBM20-AtPWD: CBM20 of Neurospora crassa NCU08746 fused N-terminally to the dikinase domain of PWD", "values": [{"measurement": "phosphorylation of starch by chimeric CBM-dikinase", "setting": "phosphate-less Arabidopsis (sex1-3) starch or potato starch, FIG. 11A", "result": "robustly phosphorylated starch"}, {"measurement": "priming of starch for phosphorylation by wild-type AtPWD", "setting": "sex1-3 starch pretreated with the enzyme, FIG. 11B", "result": "served to prime wild-type AtPWD; also recorded: to a greater extent than starch pretreated with wild-type StGWD"}]}
{"molecule": "truncated Cm-GWD construct (residues 511-1572): truncated Cm-GWD encoding the second predicted CBM and catalytic dikinase domain (protein, Fragment of Cyanidioschyzon merolae GWD polypeptide, truncated Cm-GWD encoding the second predicted CBM and catalytic dikinase domain) MTILGLERRSLDDDGETVICFSVEEDGFALRVHADLSPLVIHWGIARHRVTEFLQPDESLAVETKGRTYRFENKAMRTEFVPDEHHQGTYYAEIHLKKEHAPRAVTFVLFNPELNRWYRAEGGGNFVLRMDLESFSQLPGSVGKHEDVAQKIIEVEVEYGSWTLMHRYNLANDILRNSMSALDADLLQIVFVWLRYSFLRQLDWQRSYNTQPRLLAHAQEQLTTTLAQVFVSRPDLRLWVRLCLSMLGRGGGNGQRIRDDILRIMHKHHIPETPGHFMEQWHQKLHNNTTPDDVAICESYLAFLRSNGDKNVFYETLQKHGVTKERLASYERPIFAEVQTYPCDTNSLIHDFEEYLHVLKSVHSGTDLAVVLDYARWTLDQELISKVEHIQSVRAELMASPQGALEFSFLIAEARKMLQSTLEHVEDPTRVRDMLFLDLALDELARLAVESQGLADYVAETDVQKACNLLVVLAQHVGWSMLSSAFLETSYDLAALVYGIQSDVQLQEPDFGLRLYATMERLMDCVGHDVVERLHHDVQPKAVYIGVGCNIDQKVVTLFSEELIRGQAAFALAQVLRPLMRNIRKQANLGNWQVISPGSCTGQGAVFDELLSIQYKTFAEPTVAFVRRISGEEEIPTGMVGLITTDTLDILSHCAVRARNEHVVLACCFSEELFDQLTERFRGAWVAVRSLTDGSLDFQPIQEGAGRTTAADTTDGASEHAQRRAVSMRSDIEKKPVKSVLGIAQFNTQRGGSKSNSLAKLIRVIPDWIHIPPCALLPFGVCEQVLAEAQNSDVGERFQQLMAELDGKGPTDDCSALLARLRHCVRQLAPSDTFMKELQQVLQHEGFHSIDNLDMRRAWECILDVWASKFNDRAFLALRKAGAVGKTSLSSLYMAVLVQEVVPADYAFVLHTKNPFTGEPSEIYGELVHGLGEVLVGNYPGRALGFTYSKSTGQVRVCNYPSKTKALIPRGGLIFRSDSNGEDLEDFAGAGLFDSILMQPAEEVVVRYRELKILQDKAYLERILSKIGKCGIEIESNCGNKPQDIEGCICGEDVYVVQSRDQV", "values": [{"measurement": "ability to phosphorylate starch (specific activity)", "result": "active glucan dikinase"}]}
